Numbers after ± are expanded uncertainties.
Details: 101.33 kPa, Liquid; for electrical conductivity: Alternating current cell with electrodes; for mass density: Vibrating tube method

CCCCCCn1cc[n+](C)c1.F[B-](F)(F)F [1-hexyl-3-methylimidazolium tetrafluoroborate]
Details | electrical conductivity [S/m] | mass density [kg/m3]
238.05 K | 0.000405 ± 4e-06 | –
248.05 K | 0.00169 ± 1.7e-05 | –
258.05 K | 0.00544 ± 5e-05 | –
268.1 K | 0.0145 ± 0.00015 | –
278.1 K | 0.0332 ± 0.0003 | 1159.81 ± 2.6
288.15 K | 0.0672 ± 0.0007 | 1153.14 ± 2.6
298.15 K | 0.1229 ± 0.0012 | 1146.18 ± 2.5
308.15 K | 0.207 ± 0.002 | 1139.15 ± 2.5
318.15 K | 0.326 ± 0.003 | 1132.31 ± 2.5
328.15 K | 0.483 ± 0.005 | 1125.18 ± 2.4
338.15 K | 0.683 ± 0.007 | 1118.54 ± 2.4
348.15 K | 0.926 ± 0.009 | –
358.15 K | 1.214 ± 0.012 | –
368.15 K | 1.545 ± 0.015 | –
378.15 K | 1.92 ± 0.02 | –
388.15 K | 2.33 ± 0.02 | –
398.15 K | 2.78 ± 0.03 | –
408.15 K | 3.26 ± 0.03 | –
418.15 K | 3.77 ± 0.04 | –
428.15 K | 4.31 ± 0.04 | –
438.15 K | 4.88 ± 0.05 | –
448.15 K | 5.46 ± 0.05 | –
458.15 K | 6.07 ± 0.06 | –
468.15 K | 6.69 ± 0.07 | –

CCCCn1cc[n+](C)c1.F[B-](F)(F)F [1-butyl-3-methylimidazolium tetrafluoroborate]
Details | electrical conductivity [S/m] | mass density [kg/m3]
238.05 K | 0.00212 ± 2e-05 | –
248.05 K | 0.00778 ± 8e-05 | –
258.05 K | 0.0225 ± 0.0002 | –
268.1 K | 0.0542 ± 0.0005 | –
278.1 K | 0.1132 ± 0.0011 | 1215.43 ± 2.9
288.15 K | 0.211 ± 0.002 | 1209.33 ± 2.8
298.15 K | 0.352 ± 0.004 | 1202.08 ± 2.8
308.15 K | 0.556 ± 0.006 | 1194.78 ± 2.8
318.15 K | 0.821 ± 0.008 | 1187.79 ± 2.7
328.15 K | 1.15 ± 0.012 | 1180.62 ± 2.7
338.15 K | 1.545 ± 0.015 | 1173.51 ± 2.6
348.15 K | 2 ± 0.02 | –
358.15 K | 2.52 ± 0.03 | –
368.15 K | 3.1 ± 0.03 | –
378.15 K | 3.73 ± 0.04 | –
388.15 K | 4.41 ± 0.04 | –
398.15 K | 5.13 ± 0.05 | –
408.15 K | 5.88 ± 0.06 | –
418.15 K | 6.64 ± 0.07 | –
428.15 K | 7.45 ± 0.07 | –
438.15 K | 8.29 ± 0.08 | –
448.15 K | 9.15 ± 0.09 | –
458.15 K | 10.04 ± 0.1 | –
468.15 K | 10.9 ± 0.11 | –

CCn1cc[n+](C)c1.F[B-](F)(F)F [1-ethyl-3-methylimidazolium tetrafluoroborate]
Details | electrical conductivity [S/m] | mass density [kg/m3]
248.05 K | 0.106 ± 0.0011 | –
258.05 K | 0.228 ± 0.002 | –
268.1 K | 0.423 ± 0.004 | –
278.1 K | 0.703 ± 0.007 | 1293.75 ± 3.2
288.15 K | 1.08 ± 0.011 | 1288.03 ± 3.2
298.15 K | 1.546 ± 0.015 | 1280.07 ± 3.2
308.15 K | 2.11 ± 0.02 | 1272.48 ± 3.1
318.15 K | 2.77 ± 0.03 | 1265.12 ± 3.1
328.15 K | 3.51 ± 0.04 | 1256.89 ± 3.1
338.15 K | 4.34 ± 0.04 | 1250.24 ± 3
348.15 K | 5.23 ± 0.05 | –
358.15 K | 6.2 ± 0.06 | –
368.15 K | 7.22 ± 0.07 | –
378.15 K | 8.29 ± 0.08 | –
388.15 K | 9.41 ± 0.09 | –
398.15 K | 10.6 ± 0.11 | –
408.15 K | 11.8 ± 0.12 | –
418.15 K | 13 ± 0.13 | –
428.15 K | 14.22 ± 0.14 | –
438.15 K | 15.48 ± 0.15 | –
448.15 K | 16.8 ± 0.17 | –
458.15 K | 18.03 ± 0.18 | –
468.15 K | 19.3 ± 0.2 | –

CCCCCCCC[n+]1ccn(C)c1.F[B-](F)(F)F [1-methyl-3-octylimidazolium tetrafluoroborate]
Details | electrical conductivity [S/m] | mass density [kg/m3]
238.05 K | 0.0001524 ± 1.5e-06 | –
248.05 K | 0.00065 ± 7e-06 | –
258.05 K | 0.00218 ± 2e-05 | –
268.1 K | 0.00605 ± 6e-05 | –
278.1 K | 0.01441 ± 0.00014 | 1116.79 ± 2.4
288.15 K | 0.0304 ± 0.0003 | 1110.36 ± 2.4
298.15 K | 0.0579 ± 0.0006 | 1103.6 ± 2.3
308.15 K | 0.1012 ± 0.001 | 1096.82 ± 2.3
318.15 K | 0.1647 ± 0.0016 | 1090.04 ± 2.3
328.15 K | 0.252 ± 0.003 | 1083.22 ± 2.2
338.15 K | 0.368 ± 0.004 | 1076.46 ± 2.2
348.15 K | 0.512 ± 0.005 | –
358.15 K | 0.688 ± 0.007 | –
368.15 K | 0.895 ± 0.009 | –
378.15 K | 1.134 ± 0.011 | –
388.15 K | 1.403 ± 0.014 | –
398.15 K | 1.701 ± 0.017 | –
408.15 K | 2.03 ± 0.02 | –
418.15 K | 2.38 ± 0.02 | –
428.15 K | 2.75 ± 0.03 | –
438.15 K | 3.15 ± 0.03 | –
448.15 K | 3.56 ± 0.04 | –
458.15 K | 3.99 ± 0.04 | –
468.15 K | 4.44 ± 0.04 | –
